# Measurements published in patent US20150338330A1, “Method for Comprehensive Assessment of Platelet Aggregation” (FUJIMORI KOGYO CO., LTD.,, priority 2012, published 2015).
# How the values were obtained:
# Type in all cases: cell-based
# platelets [1] = assay: Filter back-pressure measurement of platelet aggregation, ADP reagent (final 5.6 μM), citrated blood; design: area under the curve of the pressure waveform: unit not given beside the values; details: for area under the curve of the pressure waveform: 60 μl/minute, 5 minutes
# Method: (§1) The apparatus in FIG. 1 was prepared for use in the following experiments.
# (§2) As the container 1 (blood reservoir), a cylindrical acrylic container having a capacity of 450 μl (inner diameter, 6 mm; depth, 16 mm) was used.
# (§3) As the filter, a circular nickel micromesh filter having 30 μm×30 μm square openings (pitch size, 45 μm) and a diameter of 1 mm, placed at the center of the filter section was used.
# To the blood reservoir, 13 μl of […] ADP reagent (Dynabite GmbH, Germany) (final concentration, 5.6 μM) was added, and 450 μl of blood collected in a Terumo blood collection tube (Venoject, containing 3.13% sodium citrate) was added thereto. The resulting mixture was mixed in the blood reservoir, and the filter device was connected to the blood reservoir. One minute after the mixing of the blood with the ADP reagent, mineral oil was injected into the blood reservoir at a flow rate of 60 μl/minute to inject the blood into the filter device.
# The back pressure exerted on the mineral oil was continuously monitored for 5 minutes at intervals of 1 second using the pressure sensor. In addition, the same measurement was carried out for blood to which AR-C66096 (platelet P2Y12 receptor inhibitor; Tocris Bioscience, UK) was added to a final concentration of 25, 50, 100, or 250 nM.
# platelets [2] = assay: Multiplate impedance-based whole blood platelet aggregation, ADP (final 6.5 μM); details: ADP 6.5 μM
# Method: To provide controls, whole blood platelet aggregation was similarly measured for blood to which AR-C66096 was added to a final concentration of 25, 50, 100, or 250 nM, using Multiplate (impedance-based platelet aggregability analyzer, Dynabite GmbH). As the platelet-activating reagent, ADP (final concentration, 6.5 μM) was used. […] That is, in the absence of a physical load by blood flow or the like, platelet aggregates that have once adhered/aggregated to the electrode were maintained without breakdown, leading to the increase in the electric resistance.
# platelets [3] = assay: Filter back-pressure measurement of platelet aggregation, arachidonic acid (6.25 mM or 10 mM), citrated blood
# Method: as §1, §2, §3
# To the blood reservoir, 30 or 50 μl (final concentration, 6.25 mM or 10 mM, respectively) of 100 mM arachidonic acid (manufactured by Dynabite GmbH) was added, and 450 μl of blood collected in a Terumo blood collection tube (Venoject, containing 3.13% sodium citrate) was added thereto. After mixing the resulting mixture, the filter device was connected to the blood reservoir. One minute after the mixing of the blood with the collagen reagent, mineral oil was injected into the blood reservoir at a flow rate of 60 μl/minute to inject the blood into the filter device.
# The back pressure exerted on the mineral oil was continuously monitored for 5 minutes at intervals of 1 second using the pressure sensor. In addition, the same measurement was carried out for a mixture prepared by mixing 50 μl of an arachidonic acid reagent with blood to which aspirin was added to a final concentration of 100 μM.
# platelets [4] = assay: Filter back-pressure measurement of platelet aggregation, PAR4-activating reagent (AYPGKF), citrated blood; details: aspirin 100 μM
# Method: (§4) The apparatus in FIG. 1 was prepared for use in the following experiments. As the container 1 (blood reservoir), a cylindrical acrylic container having a capacity of 450 μl (inner diameter, 6 mm; depth, 16 mm) was used. As the filter, a circular nickel micromesh filter having 30 μm×30 μm square openings (pitch size, 45 μm) and a diameter of 1 mm, placed at the center of the filter section was used. To the blood reservoir, 20 μl of 20 mM PAR4-activating reagent (peptide sequence, AYPGKF; manufactured by Dynabite GmbH) was added, and 450 μl of blood collected in a Terumo blood collection tube (Venoject, containing 3.13% sodium citrate) was added thereto. After mixing the resulting mixture, the filter device was connected to the blood reservoir. One minute after the mixing of the blood with the collagen reagent, mineral oil was injected into the blood reservoir at a flow rate of 60 μl/minute to inject the blood into the filter device. The back pressure exerted on the mineral oil was continuously monitored for 5 minutes at intervals of 1 second using the pressure sensor. The same measurement was carried out for blood to which aspirin was added to a final concentration of 100 μM.
# platelets [5] = assay: Filter back-pressure measurement of platelet aggregation, PAR1-activating reagent (SFLLRN), citrated blood; details: aspirin 100 μM
# Method: as §4, with “of 1” for “of 20”, “mM PAR1-activating” for “mM PAR4-activating”, “sequence, […];” for “sequence, AYPGKF;”, “reservoir. […]” for “reservoir. One minute after the mixing of the blood with the collagen reagent, mineral oil was injected into the blood reservoir at a flow rate of 60 μl/minute to inject the blood into the filter device.”
# platelets [6] = assay: Filter back-pressure measurement of platelet aggregation, collagen reagent (final 0.7 μg/ml), citrated blood; details: aspirin 100 μM; collagen 0.7 μg/ml
# Method: as §4, with “reservoir, 13” for “reservoir, 20”, “of 25 μg/ml (final concentration, 0.7 μg/ml) collagen” for “of 20 mM PAR4-activating”, “reagent (manufactured” for “reagent (peptide sequence, AYPGKF; manufactured”, “sensor. In addition, the” for “sensor. The”, “100 μM, or blood to which both 50 μM aspirin and 250 μM AR-C66096 were added.” for “100 μM.”
# platelets [7] = assay: Multiplate impedance-based whole blood platelet aggregation, collagen (final 3.2 μg/ml); details: aspirin 100 μM; collagen 3.2 μg/ml
# Method: To provide controls, whole blood platelet aggregation was similarly measured for blood to which aspirin was added to a final concentration of 100 μM, and blood to which both 50 μM aspirin and 250 μM AR-C66096 were added, using Multiplate (impedance-based platelet aggregability analyzer, Dynabite GmbH). As the platelet-activating reagent, collagen (final concentration, 3.2 μg/ml) was used.
# platelets [8] = assay: Filter back-pressure measurement, collagen reagent (final 1.4 μg/ml), repeated 5 times; details: collagen final 1.4 μg/ml; 5 times of measurement; no inhibitor
# Method: as §1, §2, §3
# To the blood reservoir, 13 μl of 50 μg/ml (final concentration, 1.4 μg/ml) collagen reagent (manufactured by Dynabite GmbH) was added, and 450 μl of blood collected in a Terumo blood collection tube (Venoject, containing 3.13% sodium citrate) was added thereto. After mixing the resulting mixture, the filter device was connected to the blood reservoir. One minute after the mixing of the blood with the collagen reagent, mineral oil was injected into the blood reservoir at a flow rate of 60 μl/minute to inject the blood into the filter device.
# The back pressure exerted on the mineral oil was continuously monitored for 5 minutes at intervals of 1 second using the pressure sensor. The measurement was repeated 5 times.
# [9] = AR-C66096 25-250 nM, ADP 5.6 μM
molecule,measurement,setting,value
CCCSc1nc(N)c2ncn([C@@H]3O[C@H](COP(=O)(O)OP(=O)(O)C(F)(F)P(=O)(O)O)[C@@H](O)[C@H]3O)c2n1 [AR-C66096],area under the curve of the pressure waveform,"platelets [1]; AR-C66096 25 nM, ADP 5.6 μM",11.75
same,stability and persistence of platelet aggregates,"platelets [1]; AR-C66096 50 nM or 100 nM, arch-shaped pressure curves",suppressed
same,area under the curve of the pressure waveform,"platelets [1]; AR-C66096 50 nM, ADP 5.6 μM",8.7
same,area under the curve of the pressure waveform,"platelets [1]; AR-C66096 100 nM, ADP 5.6 μM",8.05
same,area under the curve of the pressure waveform,"platelets [1]; AR-C66096 250 nM, ADP 5.6 μM",7.95
same,beginning of the pressure increase,platelets [1]; [9],delayed
same,pressure increase,platelets [1]; [9],suppressed the pressure increase in a concentration-dependent manner
same,AUC (Multiplate impedance),platelets [2]; AR-C66096 25 nM,23
same,AUC (Multiplate impedance),platelets [2]; AR-C66096 50 nM,19
same,AUC (Multiplate impedance),platelets [2]; AR-C66096 100 nM,15
same,AUC (Multiplate impedance),platelets [2]; AR-C66096 250 nM,17
same,concentration dependence of AUC (Multiplate),platelets [2]; AR-C66096 25-250 nM,no concentration dependence was found
CCCCC/C=C\C/C=C\C/C=C\C/C=C\CCCC(=O)O [arachidonic acid],platelet activation / pressure,platelets [3]; arachidonic acid 6.25 mM or 10 mM,activated platelets to increase the pressure
CC(=O)Oc1ccccc1C(=O)O [aspirin],aggregation waveform obtained by the PAR4-activating peptide,platelets [4],not inhibited
same,aggregation waveform obtained by the PAR1-activating peptide,platelets [5],not inhibited
same,beginning of the pressure increase,platelets [6],delayed
same,pressure increase,platelets [6],suppressed
same,pressure increase,"platelets [3]; aspirin 100 μM, 50 μl arachidonic acid reagent (10 mM)",suppressed
same,AUC of the electric resistance (Multiplate),platelets [7],28
same,effect on Multiplate aggregation,platelets [7],an effect of aspirin could be found
collagen,area under the curve of the pressure waveform (mean±SD),platelets [8],15.11±0.8
